“And” between values parts separate entries of the source, which are not always exact repeats. Equal values may be shown once. Toxic doses and inconclusive results are not listed.
System: P388 leukemia ip, CD2F1 mice, survival T/C
Test: NCI In Vivo Anticancer Drug Screen. Data for tumor model P388 Leukemia (intraperitoneal) in CD2F1 (CDF1) mice
Conditions: endpoint: median survival time, higher = longer survival
Procedure, shortened: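 Mice carrying the transplanted tumor received test compound or vehicle. Survival was recorded in each group, and the value is the treated-group measurement divided by that of the vehicle-treated control group.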

[1] = dose: 6.25 mg/kg/injection, schedule: Q01DX009 (ip), vehicle: saline
[2] = dose: 12.5 mg/kg/injection, schedule: Q01DX009 (ip), vehicle: saline
[3] = dose: 25.0 mg/kg/injection, schedule: Q01DX009 (ip), vehicle: saline
[4] = dose: 50.0 mg/kg/injection, schedule: Q01DX005 (ip), vehicle: saline with Tween-80
[5] = dose: 100.0 mg/kg/injection, schedule: Q01DX005 (ip), vehicle: saline with Tween-80
[6] = dose: 100.0 mg/kg/injection, schedule: Q01DX009 (ip), vehicle: saline with Tween-80
[7] = dose: 200.0 mg/kg/injection, schedule: Q01DX009 (ip), vehicle: saline with Tween-80
[8] = dose: 50.0 mg/kg/injection, schedule: Q01DX009 (ip), vehicle: saline with Tween-80

For O=[N+]([O-])O.[Cu+2].[NH-]CC[NH-].[NH-]CC[NH-], the T/C (dose: 3.12 mg/kg/injection, schedule: Q01DX009 (ip), vehicle: saline) was 100 % of control, the T/C [1] was 100 % of control and the T/C [2] was 100 % of control. The T/C [3] was 92 % of control.
With CC(O)C([NH-])C(=O)O.CC([NH-])C(=O)O.[Cu+2] (configuration not stated) the T/C [1] was 94 % of control, the T/C [2] was 97 % of control and the T/C [3] was 94 % of control.
O=S(=O)(Nc1nccs1)c1ccc(N=Cc2c3ccccc3nc3cc(Cl)ccc23)cc1 was tested, and the T/C [4] was 94 % of control, the T/C [5] was 93 % of control and the T/C (dose: 200.0 mg/kg/injection, schedule: Q01DX005 (ip), vehicle: saline with Tween-80) was 96 % of control.
C=CC(=C)CCC=C(C)C was tested, and the T/C [6] was 104 % of control, the T/C (dose: 100.0 mg/kg/injection, schedule: Q04DX003 (ip), vehicle: saline with Tween-80) was 110 % of control and the T/C [7] was 113 % of control. The T/C (dose: 200.0 mg/kg/injection, schedule: Q04DX003 (ip), vehicle: saline with Tween-80) was 110 % of control and the T/C (dose: 400.0 mg/kg/injection, schedule: Q04DX003 (ip), vehicle: saline with Tween-80) was 110 % of control.
OC(c1ccccc1)(C(F)(F)F)C(F)(F)F was tested, and the T/C [8] was 110 % of control and the T/C [6] was 92 % of control.
For COc1ccc(/C(C)=N/N=c2/sc3ccccc3n2CC(=O)O)cc1, the T/C (dose: 100.0 mg/kg/injection, schedule: Q01DX001 (ip), vehicle: saline with Tween-80) was 101 % of control, the T/C (dose: 200.0 mg/kg/injection, schedule: Q01DX001 (ip), vehicle: saline with Tween-80) was 101 % of control and the T/C (dose: 400.0 mg/kg/injection, schedule: Q01DX001 (ip), vehicle: saline with Tween-80) was 91 % of control.
O=C(Nc1ccc(S(=O)(=O)c2ccc(NC(=O)c3ccco3)cc2)cc1)c1ccco1 was tested, and the T/C [8] was 105 % of control, the T/C [6] was 98 % of control and the T/C [7] was 95 % of control.
With COc1cc2c(c(OC)c1OC)-c1cc3c(cc1C(OC1c4cc5c(cc4-c4c(cc(OC)c(OC)c4OC)CC4C(=O)OCC41)OCO5)C1COC(=O)C1C2)OCO3 (configuration not stated) the T/C (dose: 2.5 mg/kg/injection, schedule: Q01DX005 (ip), vehicle: Klucel (hydroxypropylcellulose) (HPC)) was 109 % of control, the T/C (dose: 5.0 mg/kg/injection, schedule: Q01DX005 (ip), vehicle: Klucel (hydroxypropylcellulose) (HPC)) was 98 % of control and the T/C (dose: 10.0 mg/kg/injection, schedule: Q01DX005 (ip), vehicle: Klucel (hydroxypropylcellulose) (HPC)) was 92 % of control. For the same compound, the T/C (dose: 20.0 mg/kg/injection, schedule: Q01DX005 (ip), vehicle: Klucel (hydroxypropylcellulose) (HPC)) was 109 % of control.
CC(NNC(=S)N1CCCC1)c1cc2ccccc2cn1 (configuration not stated) was tested, and the T/C (dose: 25.0 mg/kg/injection, schedule: Q01DX005 (ip), vehicle: saline with Tween-80) was 104 % of control and 108 % of control, the T/C [4] was 110 % of control and 123 % of control and the T/C [5] was 104 % of control.
With CCOC(=O)c1ccc(N=C/C(Cl)=C(/Cl)C(=O)O)cc1 the T/C (dose: 3.12 mg/kg/injection, schedule: Q01DX009 (ip), vehicle: other) was 102 % of control, the T/C (dose: 6.25 mg/kg/injection, schedule: Q01DX009 (ip), vehicle: other) was 92 % of control and the T/C (dose: 12.5 mg/kg/injection, schedule: Q01DX009 (ip), vehicle: Klucel (hydroxypropylcellulose) (HPC)) was 92 % of control. For the same compound, the T/C (dose: 12.5 mg/kg/injection, schedule: Q01DX009 (ip), vehicle: other) was 89 % of control.
For O=c1[nH]nc(SCc2ccccc2Cl)c(=O)[nH]1, the T/C (dose: 25.0 mg/kg/injection, schedule: Q01DX005 (ip), vehicle: Klucel (hydroxypropylcellulose) (HPC)) was 89 % of control, the T/C (dose: 50.0 mg/kg/injection, schedule: Q01DX005 (ip), vehicle: Klucel (hydroxypropylcellulose) (HPC)) was 89 % of control and the T/C (dose: 100.0 mg/kg/injection, schedule: Q01DX005 (ip), vehicle: Klucel (hydroxypropylcellulose) (HPC)) was 86 % of control.
For Nc1ccccc1C(=O)CCc1ccccc1, the T/C (dose: 60.0 mg/kg/injection, schedule: Q01DX005 (ip), vehicle: saline with Tween-80) was 100 % of control, the T/C (dose: 120.0 mg/kg/injection, schedule: Q01DX005 (ip), vehicle: saline with Tween-80) was 99 % of control and the T/C (dose: 240.0 mg/kg/injection, schedule: Q01DX005 (ip), vehicle: saline with Tween-80) was 97 % of control.
With C=C(C)C12CC(C)C34OC(CCCCCCCCCCC)(OC1C3C1OC1(CO)C(O)C1(O)C(=O)C(C)=CC14C)O2 (configuration not stated) the T/C (dose: 0.05 mg/kg/injection, schedule: Q01DX009 (ip), vehicle: distilled water + Tween-80) was 99 % of control and 100 % of control, the T/C (dose: 0.06 mg/kg/injection, schedule: Q01DX009 (ip), vehicle: other) was 100 % of control and the T/C (dose: 0.1 mg/kg/injection, schedule: Q01DX009 (ip), vehicle: distilled water + Tween-80) was 100 % of control and 96 % of control. For the same compound, the T/C (dose: 0.12 mg/kg/injection, schedule: Q01DX009 (ip), vehicle: other) was 104 % of control, the T/C (dose: 0.2 mg/kg/injection, schedule: Q01DX009 (ip), vehicle: distilled water + Tween-80) was 103 % of control and 96 % of control and the T/C (dose: 0.4 mg/kg/injection, schedule: Q01DX009 (ip), vehicle: distilled water + Tween-80) was 105 % of control and 119 % of control. The T/C (dose: 25.0 micrograms/kg/injection, schedule: Q01DX009 (ip), vehicle: other) was 112 % of control and the T/C (dose: 50.0 micrograms/kg/injection, schedule: Q01DX009 (ip), vehicle: other) was 112 % of control.
With COC(=O)[C@H]1O[C@H]1c1ccccn1 the T/C (dose: 25.0 mg/kg/injection, schedule: Q01DX005 (ip), vehicle: distilled water + alcohol) was 103 % of control, the T/C (dose: 50.0 mg/kg/injection, schedule: Q01DX005 (ip), vehicle: distilled water + alcohol) was 106 % of control and the T/C (dose: 100.0 mg/kg/injection, schedule: Q01DX005 (ip), vehicle: distilled water + alcohol) was 99 % of control. The T/C (dose: 200.0 mg/kg/injection, schedule: Q01DX005 (ip), vehicle: distilled water + alcohol) was 107 % of control.
For CC(C)C[N+]1(Cc2ccc(Cl)cc2Cl)CCOCC1, the T/C (dose: 100.0 mg/kg/injection, schedule: Q04DX003 (ip), vehicle: saline) was 101 % of control and the T/C (dose: 200.0 mg/kg/injection, schedule: Q04DX003 (ip), vehicle: saline) was 93 % of control.
CC1(C)CN(C2CCCCC2)CN2C1OCC2(C)C (configuration not stated) was tested, and the T/C (dose: 80.0 mg/kg/injection, schedule: Q01DX009 (ip), vehicle: saline with Tween-80) was 117 % of control.
O=C1C(N2CCCCC2)=C(N2CC2)C(=O)C(N2CCCCC2)=C1N1CC1 was tested, and the T/C (dose: 2.5 mg/kg/injection, schedule: Q01DX009 (ip), vehicle: saline) was 112 % of control and the T/C (dose: 10.0 mg/kg/injection, schedule: Q01DX009 (ip), vehicle: saline) was 177 % of control.
